# In US20220387359A1, “SYNERGISTIC INHIBITORS OF CREB-MEDIATED GENE TRANSCRIPTION” (OREGON HEALTH & SCIENCE UNIVERSITY, priority 2019, published 2022):
# Where a name gives a salt, the structure may show the parent alone. Read-outs that look alike come from different tables or passages of the source.
# Legend:
# [1] = tested on: CREB-mediated gene transcription; assay: CREB transcription renilla luciferase reporter assay in HEK 293T cells; type: cell-based; conditions: for combination index (CI) in inhibiting CREB-mediated gene transcription: Chou-Talalay; for effect of combination with 666-15 on inhibition of CREB-mediated gene transcription: compound combined with 666-15; for IC50: Homo sapiens
# Method: ^a The IC50 refers to the concentration needed to inhibit 50% of the CREB-mediated gene transcription in HEK 293T cells using a transcription renilla luciferase reporter assay. The data are presented as mean±standard deviation (SD) of at least two independent experiments, which were performed in triplicates.
# To test this possibility, we employed a transcription luciferase reporter assay in HEK 293T cells.^22 Briefly, the cells were transfected with a CREB renilla luciferase reporter plasmid (CRE-RLuc). This plasmid expresses renilla luciferase under the control of three tandem copies of CRE in the promoter region.
# Inhibition of CREB-mediated gene transcription. HEK 293T cells were transfected with CRE-RLuc. Then the cells were treated with increasing concentrations of individual compounds (FIG. 2A) or drug combinations (FIG. 2B) for 30 min before the addition of Fsk (10 μM) for 5 h. The renilla luciferase activity was normalized to the protein concentration in each well and expressed as relative luciferase unit (RLU)/μg protein. The errors are SEM from one representative experiment in triplicate.
# HEK293T cells in a well of 6-well plate were transfected with a plasmid (1 μg) encoding renilla luciferase under the control of three copies of CRE (pCRE-RLuc) using Lipofectamin^2000 (Life Technologies) for 3 h. Then the cells were replated into a 96-well plate and the cells were allowed to attach to the bottom of the plate for overnight. The cells were treated with different concentrations of the compounds for 30 min, when Fsk (10 μM) was added to the cells. The cells were further incubated for 5 h at 37° C. The media were removed and the cells were lysed in 30 μl 1× renilla luciferase lysis buffer (Promega) and the renilla luciferase activity was measured using the renilla luciferase assay system (Promega). The protein concentration in each well was determined using the Protein Assay Dye Reagent Concentrate (Bio-rad). The luciferase activity in each well was normalized to the protein concentration and expressed as relative luciferase unit (RLU)/μg protein. The IC50 was calculated in Prism 5.0 using the non-linear regression analysis.
# KIX-KID interaction = KIX-KID interaction (Homo sapiens, UniProt Q92793); assay: split renilla luciferase complementation assay of KIX-KID interaction; type: cell-based
# NR4A2 = assay: endogenous CREB target gene expression by qRT-PCR in HEK 293T cells; type: cell-based; conditions: Fsk-stimulated HEK 293T cells
# Method: Then the cells were subjected to qRT-PCR analysis after the total RNA was isolated using HPRT as a reference gene.
# Then the cells were stimulated with Fsk (10 μM) for 45 min. The total RNA was isolated using NucleoSpin® RNA isolation kit (Takara Bio). Following RNA isolation, the first strand cDNA was synthesized using PrimeScript™ 1st strand cDNA synthesis kit (Takara Bio) with random hexamers as the primers. Quantitative PCR reactions were performed with TB Green® Advantage® qPCR Premix (Takara Bio). The relative mRNA level was determined with double delta Ct method using HPRT as a reference gene.
# MDA-MB-231 cells = assay: cell growth inhibition MTT assay; type: cell-based
# Method: Then the viable cells were quantified by the MTT reagent. […] The data are presented as mean+SEM. The SEM was from one representative experiment performed in duplicates.
# The cells were plated in 96-well plates at 1,000 cells/well and allowed to attach to the bottom of the plate for overnight. Then the cells were treated with different concentrations of compounds for 72 h at 37° C. At the end of treatment, the viable cells were determined by incubating cells with MTT reagent (0.5 mg/mL) in the complete tissue culture media for 3 h. Then the media were removed and the formed purple formazan was dissolved in DMSO for quantification by absorbance at 570 nm using a SpectraMax i3 plate reader (Molecular Devices). The percent of growth is defined as 100×(Atreated−Ainitial)/(Acontrol−Ainitial), where Atreated represents absorbance in wells treated with a compound, Ainitial represents the absorbance at time 0, and Acontrol denotes media-treated cells.
# [2] = aqueous solubility in ddH2O; type: physicochemical; conditions: water
# Excerpt: Furthermore, we discovered a novel compound that can potentiate 666-15's inhibitory effect against CREB-mediated gene transcription in living cells.
# The synthesis of compound 3 is presented in Scheme 1. […] Under the coupling conditions we used before (BOP, DIPEA, room temperature),^13 a mixture of compositional isomers 6 and 7 (2-(3-(3-((tert-butoxycarbonyl)amino)propoxy)-2-naphthamido)-5-chlorophenyl 3-(2-((tert-butoxy carbonyl)amino)ethoxy)-2-naphthoate) involving acyl group swapping was obtained. These two isomers were only partially separable by conventional silica gel column chromatograph. […] The formation of the unanticipated alternative ester 7 was likely a result of generation of imide intermediate 8 (2-(3-(2-((tert-butoxycarbonyl)amino)ethoxy)-2-naphthamido)-5-chloro-3-hydroxyphenyl 3-(3-((tert-butoxycarbonyl) amino)propoxy)-2-naphthoate) although it was not detected from the reaction mixture. The intermediate 8 could be generated either before the formation of 6 (2-(3-(2-((tert-butoxycarbonyl) amino)ethoxy)-2-naphthamido)-5-chlorophenyl 3-(3-((tert-butoxycarbonyl)amino) propoxy)-2-naphthoate) or after 6 was formed. Once 8 was produced, it could generate either 6 or 7 through an ester bond formation (Scheme 1). […] The Boc groups (tert-butyloxycarbonyl protecting groups) in 6 were then deprotected under acidic condition (HCl, DCM) to give 3 uneventfully. […]
# [3] = conversion of ester 3 in complete cell culture media (DMEM with 10% FBS), HPLC; type: in vitro ADME; conditions: 37° C.
# Method: With the desired compound 3 in hand, we first investigated the possibility of transformation of 3 into 666-15 in the complete cell culture media (Dulbecco's Modified Eagle Medium with 10% fetal bovine serum (FBS)). […] In stark contrast to the structural congener 2,^15 only a small amount of 666-15 was generated under the reaction condition. In order to investigate if simple ester hydrolysis was occurring to generate products 9 and 10 (FIG. 2A), we compared the main peaks eluted at 10.5 min and 11.2 min with standard samples of 9 and 10 by HPLC.
# Compound 3 (200 μM) was incubated with complete tissue culture media (DMEM with 10% FBS) at 37° C. for various time periods. An aliquot of 10 μl was taken at a given time point and mixed with acetonitrile (90 μL). The mixture was centrifuged at 14,000×rpm for 5 min at room temperature in a tabletop centrifuge to precipitate proteins. The supernatant was collected and analyzed by HPLC eluting with a linear of water and acetonitrile, both of which contained 0.1% TFA.
# [4] = stability of stock solution in DMSO; type: physicochemical; conditions: long-term storage of stock solution
# [5] = from reference 15; cited from earlier work
# [6] = HEK 293T cells, CRE-RLuc reporter, Fsk stimulated, mean ± SD of at least two independent experiments, read-out: CREB inhibition (IC50)
# Sequence of KIX-KID interaction (Q92793 587-666 limits assumed): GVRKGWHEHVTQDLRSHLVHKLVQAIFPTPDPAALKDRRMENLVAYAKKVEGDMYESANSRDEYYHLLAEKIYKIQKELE
compound,measurement,setting,value
"NCCCOc1cc2ccccc2cc1C(=O)Nc1ccc(Cl)cc1O [Compound 11, 3-(3-aminopropoxy)-N-(4-chloro-2-hydroxyphenyl)-2-naphthamide]",combination index (CI) in inhibiting CREB-mediated gene transcription,[1]; 11 (5 μM) combined with 666-15 0.01 μM,2.87
same,combination index (CI) in inhibiting CREB-mediated gene transcription,[1]; 11 (5 μM) combined with 666-15 0.05 μM,0.31
same,combination index (CI) in inhibiting CREB-mediated gene transcription,[1]; 11 (5 μM) combined with 666-15 0.1 μM,0.17
same,combination index (CI) in inhibiting CREB-mediated gene transcription,[1]; 11 (5 μM) combined with 666-15 0.5 μM,0.37
same,combination index (CI) in inhibiting CREB-mediated gene transcription,[1]; 11 (5 μM) combined with 666-15 1.0 μM,0.56
same,combination index (CI) in inhibiting CREB-mediated gene transcription,[1]; 11 (5 μM) combined with 666-15 5.0 μM,2.41
same,effect of combination with 666-15 on inhibition of CREB-mediated gene transcription,[1]; HEK 293T cells,significantly potentiated activity of 666-15
same,IC50,[1]; [6],26.3 ± 13.6 µM
same,IC50,KIX-KID interaction,> 50 µM
same,expression level of NR4A2,NR4A2; 666-15 (50 nM) combined with compound 11 (5 μM),significant inhibition of NR4A2 transcription was observed
same,expression level of NR4A2,"NR4A2; compound 11 alone, 5 μM",did not inhibit the expression of NR4A2
same,combination index (CI) of anti-proliferative effect,"MDA-MB-231 cells; 11 (0.5 or 1.0 μM) combined with 666-15, 72 h",less than 1.0
same,antiproliferative effect (cell growth),"MDA-MB-231 cells; 11 alone, 0.5 or 1.0 μM, 72 h",did not appreciably inhibit the cell growth
"O=C1NCCOc2cc3ccccc3cc21 [Compound 12, 3,4-dihydronaphtho[2,3-f][1,4]oxazepin-5(2H)-one]",CREB inhibition potency,"[1]; HEK 293T cells, compound alone",inactive
same,effect of combination with 666-15 on inhibition of CREB-mediated gene transcription,[1]; HEK 293T cells,did not produce further inhibition of CREB-mediated gene transcription
same,IC50,[1]; [6],> 50 µM
same,melting point,,128 to 129 °C
"NCCCOc1cc2ccccc2cc1C(=O)Oc1cc(Cl)ccc1NC(=O)c1cc2ccccc2cc1OCCN [Compound 3, 2-(3-(2-Aminoethoxy)-2-naphthamido)-5-chlorophenyl 3-(3-Aminopropoxy)-2-naphthoate Dihydrochloride]",IC50,"[1]; HEK-293T, read-out: CREB inhibition (IC50, μM)",0.25 ± 0.11 µM
same,solubility,[2],> 100 mg/mL
same,conversion in complete cell culture media,[3],rapidly converted into four new product peaks
same,stability in DMSO,[4],unstable in DMSO for long-term storage
"NCCCOc1cc2ccccc2cc1C(=O)NCCOc1cc2ccccc2cc1C(=O)Nc1ccc(Cl)cc1O [Compound 666-15, 3-(3-aminopropoxy)-N-(2-((3-((4-chloro-2-hydroxyphenyl)carbamoyl)naphthalen-2-yl)oxy)ethyl)-2-naphthamide]",solubility,[2],< 0.5 mg/mL
"NCCCOc1cc2ccccc2cc1C(=O)Oc1cc(Cl)ccc1NC(=O)c1cc2ccccc2cc1OCCN (as salt: hydrochloride) [Compound 3, 2-(3-(2-Aminoethoxy)-2-naphthamido)-5-chlorophenyl 3-(3-Aminopropoxy)-2-naphthoate Dihydrochloride]",melting point,,216 to 217 °C
"NCCCOc1cc2ccccc2cc1C(=O)Nc1ccc(Cl)cc1OC(=O)c1cc2ccccc2cc1OCCCN [Compound 2, 2-(3-(3-aminopropoxy)-2-naphthamido)-5-chlorophenyl 3-(3-aminopropoxy)-2-naphthoate]",aqueous solubility in ddH2O,[5],> 100 mg/mL
